Experimental data: ChEMBL document CHEMBL1201862, “PubChem BioAssay data set” (2004)
Active and inactive are the calls of the source.

What was measured:
CHO-K1 = assay: (§1) Counterscreen for antagonists of the orexin 1 receptor (OX1R; HCRTR1): Homogeneous time resolved fluorescence (HTRF)-based cell-based dose response assay to identify antagonists of the parental CHO-K1 cell line. [Related pubchem assays (depositor defined):AID434989, AID435008, AID463079, AID485270, AID492963, AID492964, AID492965, AID493232, AID504699, AID504701]; type: functional; settings: Cricetulus griseus
[1] = as §1, with “Fluorescence-based” for “Homogeneous time resolved fluorescence (HTRF)-based”, “cell-based high throughput” for “cell-based”, “CHO” for “CHO-K1”; type: functional
[2] = target: T1, Orexin/Hypocretin receptor type 1 (Homo sapiens, UniProt O43613); assay: Homogeneous Time Resolved Fluorescence (HTRF)-based cell-based high throughput dose response assay for antagonists of the orexin 1 receptor (OX1R; HCRTR1). [Related pubchem assays (depositor defined):AID434989, AID435008, AID463079, AID485270, AID492963, AID492964, AID492965, AID493232, AID504717, AID504718]; type: functional
T1 sequence (O43613 whole entry): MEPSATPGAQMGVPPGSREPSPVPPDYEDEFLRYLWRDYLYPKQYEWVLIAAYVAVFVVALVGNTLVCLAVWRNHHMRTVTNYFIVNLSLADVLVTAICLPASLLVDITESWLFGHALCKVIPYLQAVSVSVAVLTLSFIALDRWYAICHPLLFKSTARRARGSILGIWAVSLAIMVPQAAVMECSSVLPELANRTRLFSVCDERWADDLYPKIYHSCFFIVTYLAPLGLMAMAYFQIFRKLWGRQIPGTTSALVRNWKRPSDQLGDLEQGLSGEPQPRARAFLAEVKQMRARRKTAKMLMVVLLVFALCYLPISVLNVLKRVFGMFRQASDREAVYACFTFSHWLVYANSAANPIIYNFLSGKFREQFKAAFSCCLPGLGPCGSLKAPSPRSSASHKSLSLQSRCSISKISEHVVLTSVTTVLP

[3] = target: T1, Orexin/Hypocretin receptor type 1; assay: Fluorescence-based cell-based high throughput dose response assay for antagonists of the orexin 1 receptor (OX1R; HCRTR1). [Related pubchem assays (depositor defined):AID434989, AID435008, AID463079, AID485270, AID492963, AID492964, AID492965, AID493232, AID504717, AID504718]; type: functional
[4] = target: T2, Polyadenylate-binding protein 1 (Homo sapiens, UniProt P11940); assay: PABP1 MLLE–PAM2 interaction inhibitors, dose response, miRNA deadenylation inhibitor project, biochemical, fluorescence polarization, Cy5-PAM2 peptide, secondary (AID 602260); type: functional; settings: read-out: IC50_Mean
T2 sequence (P11940 whole entry): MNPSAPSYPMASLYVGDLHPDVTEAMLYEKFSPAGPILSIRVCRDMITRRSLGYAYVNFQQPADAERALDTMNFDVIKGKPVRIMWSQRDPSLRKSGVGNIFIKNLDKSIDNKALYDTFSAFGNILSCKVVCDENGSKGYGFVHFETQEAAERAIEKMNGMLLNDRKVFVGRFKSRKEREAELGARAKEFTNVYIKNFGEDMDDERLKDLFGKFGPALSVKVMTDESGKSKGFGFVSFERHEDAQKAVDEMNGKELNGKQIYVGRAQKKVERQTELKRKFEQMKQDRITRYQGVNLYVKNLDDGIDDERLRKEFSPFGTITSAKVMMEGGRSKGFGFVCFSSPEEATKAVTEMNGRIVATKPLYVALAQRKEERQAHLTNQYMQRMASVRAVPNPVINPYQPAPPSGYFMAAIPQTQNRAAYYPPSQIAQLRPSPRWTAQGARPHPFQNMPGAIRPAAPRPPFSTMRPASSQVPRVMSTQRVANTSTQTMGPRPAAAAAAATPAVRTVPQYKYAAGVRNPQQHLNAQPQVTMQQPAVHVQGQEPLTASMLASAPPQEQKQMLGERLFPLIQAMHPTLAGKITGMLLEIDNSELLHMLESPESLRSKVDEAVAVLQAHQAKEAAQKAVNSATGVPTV

[5] = target: T2, Polyadenylate-binding protein 1; assay: PABP1 MLLE–PAM2 binding inhibitor potency, dose response, biochemical, fluorescence polarization, FITC-PAM2 peptide (AID 602259); type: functional; settings: read-out: IC50_Mean
Orexin receptor type 2 [6] = target: T3, Orexin receptor type 2 (Homo sapiens, UniProt O43614); assay: Counterscreen assay for antagonists of the orexin 1 receptor (OX1R; HCRTR1): Fluorescence-based cell-based dose response assay for antagonists of the orexin 2 receptor (OX2R; HCRTR2), run by assay provider.; type: functional
T3 sequence (O43614 whole entry): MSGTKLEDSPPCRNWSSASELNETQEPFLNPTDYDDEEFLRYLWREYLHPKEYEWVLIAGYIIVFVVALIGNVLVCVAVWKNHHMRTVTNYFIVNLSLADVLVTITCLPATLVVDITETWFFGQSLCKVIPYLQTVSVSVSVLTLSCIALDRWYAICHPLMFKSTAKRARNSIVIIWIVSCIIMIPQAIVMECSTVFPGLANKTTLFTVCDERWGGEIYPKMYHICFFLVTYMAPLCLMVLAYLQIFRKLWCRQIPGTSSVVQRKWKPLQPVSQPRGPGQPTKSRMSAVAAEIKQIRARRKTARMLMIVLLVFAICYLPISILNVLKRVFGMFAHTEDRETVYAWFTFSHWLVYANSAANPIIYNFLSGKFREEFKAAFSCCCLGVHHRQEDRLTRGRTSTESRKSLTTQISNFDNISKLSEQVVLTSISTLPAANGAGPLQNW

Orexin receptor type 2 [7] = target: T3, Orexin receptor type 2; assay: Counterscreen assay for antagonists of the orexin 1 receptor (OX1R; HCRTR1): Homogeneous Time Resolved Fluorescence (HTRF)-based cell-based dose response assay for antagonists of the orexin 2 receptor (OX2R; HCRTR2), run by assay provider.; type: functional
[8] = target: Protein kinase C theta type (Homo sapiens, UniProt Q04759); assay: Navigating the Kinome. Panel member name: PRKCQ; type: functional
[9] = target: Ribosomal protein S6 kinase alpha-3 (Homo sapiens, UniProt P51812); type: functional;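 also: measured within a kinome-wide profiling panel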
[10] = target: Tyrosine-protein kinase JAK2 (Homo sapiens, UniProt O60674); type: functional;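 also: JAK2 tested as one member of a kinase panel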
[11] = target: 5'-AMP-activated protein kinase catalytic subunit alpha-1 (Homo sapiens, UniProt Q13131); type: functional
[12] = target: Proto-oncogene tyrosine-protein kinase receptor Ret (Homo sapiens, UniProt P07949); type: functional;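 also: measured within a kinome-wide profiling panel, RET as the panel member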
Proto-oncogene tyrosine-protein kinase receptor Ret, sequence (P07949 whole entry): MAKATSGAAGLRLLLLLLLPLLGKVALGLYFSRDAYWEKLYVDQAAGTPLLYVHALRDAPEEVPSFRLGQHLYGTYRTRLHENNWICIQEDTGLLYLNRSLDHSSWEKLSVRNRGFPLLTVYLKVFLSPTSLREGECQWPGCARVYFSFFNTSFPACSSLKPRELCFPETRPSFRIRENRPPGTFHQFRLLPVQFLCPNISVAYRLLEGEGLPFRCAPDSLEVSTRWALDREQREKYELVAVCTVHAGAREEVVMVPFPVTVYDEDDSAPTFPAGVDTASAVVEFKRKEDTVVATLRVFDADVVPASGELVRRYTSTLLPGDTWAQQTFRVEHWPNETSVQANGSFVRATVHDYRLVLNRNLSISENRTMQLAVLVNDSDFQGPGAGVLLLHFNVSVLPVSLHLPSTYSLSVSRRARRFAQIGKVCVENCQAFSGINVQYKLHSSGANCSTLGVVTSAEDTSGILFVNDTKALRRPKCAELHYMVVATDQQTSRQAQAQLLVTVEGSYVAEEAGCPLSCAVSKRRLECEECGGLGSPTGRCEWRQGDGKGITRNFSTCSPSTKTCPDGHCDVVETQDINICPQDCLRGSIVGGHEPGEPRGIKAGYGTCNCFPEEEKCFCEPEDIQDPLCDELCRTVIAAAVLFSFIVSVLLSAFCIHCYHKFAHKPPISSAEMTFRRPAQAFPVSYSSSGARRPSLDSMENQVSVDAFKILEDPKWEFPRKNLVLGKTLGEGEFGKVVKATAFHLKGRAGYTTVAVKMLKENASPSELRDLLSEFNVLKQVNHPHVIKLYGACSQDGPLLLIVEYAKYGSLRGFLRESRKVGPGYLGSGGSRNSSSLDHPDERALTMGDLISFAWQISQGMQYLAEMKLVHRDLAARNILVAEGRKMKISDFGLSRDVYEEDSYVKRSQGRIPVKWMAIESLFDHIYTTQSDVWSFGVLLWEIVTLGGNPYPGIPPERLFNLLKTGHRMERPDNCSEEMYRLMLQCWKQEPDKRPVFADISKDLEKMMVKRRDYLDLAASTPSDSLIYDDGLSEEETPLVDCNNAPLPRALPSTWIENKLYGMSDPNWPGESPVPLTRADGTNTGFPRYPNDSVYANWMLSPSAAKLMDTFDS

[13] = target: Tyrosine-protein kinase receptor TYRO3 (Homo sapiens, UniProt Q06418); type: functional;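 also: TYRO3 value obtained as one member of a kinome-wide profiling panel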
[14] = target: Death-associated protein kinase 3 (Homo sapiens, UniProt O43293); type: functional;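 also: measured as one member of a kinome-wide profiling panel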
[15] = target: Mitogen-activated protein kinase 8 (Homo sapiens, UniProt P45983); type: functional;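 also: value comes from one member of a kinome-wide kinase profiling panel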
[16] = target: Serine/threonine-protein kinase pim-1 (Homo sapiens, UniProt P11309); type: functional
Aurora kinase A = target: T4, Aurora kinase A (Homo sapiens, UniProt O14965); type: functional;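 also: value from the Navigating the Kinome kinase panel profiling, panel entry STK6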
T4 sequence (O14965 whole entry): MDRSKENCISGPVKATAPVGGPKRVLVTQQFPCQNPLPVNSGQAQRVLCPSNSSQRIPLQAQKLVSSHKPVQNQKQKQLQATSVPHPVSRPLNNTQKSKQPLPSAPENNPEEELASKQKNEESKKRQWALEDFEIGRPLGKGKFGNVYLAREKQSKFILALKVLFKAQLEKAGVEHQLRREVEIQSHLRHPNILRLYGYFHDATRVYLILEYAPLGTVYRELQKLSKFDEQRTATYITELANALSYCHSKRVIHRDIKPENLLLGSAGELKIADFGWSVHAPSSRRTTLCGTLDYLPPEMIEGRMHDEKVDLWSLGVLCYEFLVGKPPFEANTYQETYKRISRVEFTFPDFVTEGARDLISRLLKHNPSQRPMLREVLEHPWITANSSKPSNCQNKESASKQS

LIM domain kinase 1 = LIM domain kinase 1 (Homo sapiens, UniProt P53667); assay: Navigating the Kinome. Panel member name: LIMK1; type: functional
[17] = target: High affinity nerve growth factor receptor (Homo sapiens, UniProt P04629); type: functional;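 also: NTRK1 tested as one member of a kinome-wide profiling panel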
[18] = target: T5, Glycogen synthase kinase-3 alpha (Homo sapiens, UniProt P49840); type: functional;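 as to Ki: GSK3A result taken from a broad kinome-wide kinase panel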
T5 sequence (P49840 whole entry): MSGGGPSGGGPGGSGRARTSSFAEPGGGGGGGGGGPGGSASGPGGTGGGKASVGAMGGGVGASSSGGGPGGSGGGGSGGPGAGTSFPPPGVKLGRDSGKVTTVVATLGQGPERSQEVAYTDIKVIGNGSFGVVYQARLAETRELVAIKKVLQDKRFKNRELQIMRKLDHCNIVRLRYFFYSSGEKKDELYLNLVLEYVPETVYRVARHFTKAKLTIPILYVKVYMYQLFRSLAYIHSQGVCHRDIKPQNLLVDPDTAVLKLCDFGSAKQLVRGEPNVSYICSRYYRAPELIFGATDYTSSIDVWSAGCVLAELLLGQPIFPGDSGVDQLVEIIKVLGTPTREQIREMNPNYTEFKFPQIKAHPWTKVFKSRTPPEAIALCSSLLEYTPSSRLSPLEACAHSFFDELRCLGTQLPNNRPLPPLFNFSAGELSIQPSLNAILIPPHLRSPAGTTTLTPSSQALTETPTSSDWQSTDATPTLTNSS

[19] = target: Mitogen-activated protein kinase kinase kinase kinase 2 (Homo sapiens, UniProt Q12851); type: functional;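 also: measured as one member of a kinome-wide kinase panel, with MAP4K2 as the panel entry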
[20] = target: Hepatocyte growth factor receptor (Homo sapiens, UniProt P08581); type: functional;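 also: kinase panel profiling across the kinome, with MET as the panel member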
[21] = target: Platelet-derived growth factor receptor beta (Homo sapiens, UniProt P09619); type: functional;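 also: value comes from a kinome panel, with PDGFRB tested as one panel member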
[22] = target: Receptor-type tyrosine-protein kinase FLT3 (Homo sapiens, UniProt P36888); type: functional;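 also: FLT3 was tested as one member of a kinome-wide kinase panel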
[23] = target: Serine/threonine-protein kinase Chk1 (Homo sapiens, UniProt O14757); type: functional;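 also: measured as one member of a kinome-wide kinase profiling panel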
[24] = target: Tyrosine-protein kinase ABL1 (Homo sapiens, UniProt P00519); type: functional
[25] = target: Vascular endothelial growth factor receptor 2 (Homo sapiens, UniProt P35968); type: functional
[26] = target: Dual specificity tyrosine-phosphorylation-regulated kinase 1B (Homo sapiens, UniProt Q9Y463); assay: Navigating the Kinome. Panel member name: DYRK1B; type: functional
[27] = target: Cyclin-dependent kinase 19 (Homo sapiens, UniProt Q9BWU1); assay: Navigating the Kinome. Panel member name: CDC2L6; type: functional
Cyclin-dependent kinase 19, sequence (Q9BWU1 whole entry): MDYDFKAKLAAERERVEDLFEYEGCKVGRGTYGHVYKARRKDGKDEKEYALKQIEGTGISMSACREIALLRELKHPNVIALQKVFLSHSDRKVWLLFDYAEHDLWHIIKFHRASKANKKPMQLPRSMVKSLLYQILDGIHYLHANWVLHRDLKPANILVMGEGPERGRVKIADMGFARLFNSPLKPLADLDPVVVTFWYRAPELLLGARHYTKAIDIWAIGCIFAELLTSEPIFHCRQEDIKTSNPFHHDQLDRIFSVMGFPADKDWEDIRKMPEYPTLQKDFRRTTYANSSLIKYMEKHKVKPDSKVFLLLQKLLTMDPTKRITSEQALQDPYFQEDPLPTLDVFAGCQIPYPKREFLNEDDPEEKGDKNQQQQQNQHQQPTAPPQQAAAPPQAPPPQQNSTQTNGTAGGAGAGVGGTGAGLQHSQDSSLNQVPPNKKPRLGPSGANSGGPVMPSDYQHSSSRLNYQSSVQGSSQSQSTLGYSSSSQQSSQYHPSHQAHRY

[28] = target: T6, Glycogen synthase kinase-3 beta (Homo sapiens, UniProt P49841); type: functional;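 as to Ki: value comes from a broad kinome profiling panel, with GSK3B as the panel member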
T6 sequence (P49841 whole entry): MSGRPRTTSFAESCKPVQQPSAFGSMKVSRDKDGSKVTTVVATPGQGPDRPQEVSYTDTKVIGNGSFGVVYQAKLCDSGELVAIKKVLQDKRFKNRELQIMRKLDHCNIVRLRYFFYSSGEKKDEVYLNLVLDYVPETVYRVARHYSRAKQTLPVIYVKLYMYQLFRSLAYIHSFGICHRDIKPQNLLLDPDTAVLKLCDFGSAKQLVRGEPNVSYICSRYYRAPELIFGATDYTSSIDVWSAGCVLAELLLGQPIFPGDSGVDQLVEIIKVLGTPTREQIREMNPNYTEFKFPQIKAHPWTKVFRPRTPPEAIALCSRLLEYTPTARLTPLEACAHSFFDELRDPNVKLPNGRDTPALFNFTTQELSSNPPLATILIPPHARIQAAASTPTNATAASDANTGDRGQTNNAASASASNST

[29] = target: Cyclin-dependent kinase 9 (Homo sapiens, UniProt P50750); type: functional;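 also: value from the CDK9 entry of a kinome-spanning kinase panel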
[30] = target: BDNF/NT-3 growth factors receptor (Homo sapiens, UniProt Q16620); type: functional;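 also: NTRK2 measured as one member of a broad kinome-wide kinase profiling panel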
[31] = target: cAMP-dependent protein kinase catalytic subunit alpha (Homo sapiens, UniProt P17612); type: functional
[32] = target: Dual specificity protein kinase CLK4 (Homo sapiens, UniProt Q9HAZ1); type: functional
Dual specificity protein kinase CLK4, sequence (Q9HAZ1 whole entry): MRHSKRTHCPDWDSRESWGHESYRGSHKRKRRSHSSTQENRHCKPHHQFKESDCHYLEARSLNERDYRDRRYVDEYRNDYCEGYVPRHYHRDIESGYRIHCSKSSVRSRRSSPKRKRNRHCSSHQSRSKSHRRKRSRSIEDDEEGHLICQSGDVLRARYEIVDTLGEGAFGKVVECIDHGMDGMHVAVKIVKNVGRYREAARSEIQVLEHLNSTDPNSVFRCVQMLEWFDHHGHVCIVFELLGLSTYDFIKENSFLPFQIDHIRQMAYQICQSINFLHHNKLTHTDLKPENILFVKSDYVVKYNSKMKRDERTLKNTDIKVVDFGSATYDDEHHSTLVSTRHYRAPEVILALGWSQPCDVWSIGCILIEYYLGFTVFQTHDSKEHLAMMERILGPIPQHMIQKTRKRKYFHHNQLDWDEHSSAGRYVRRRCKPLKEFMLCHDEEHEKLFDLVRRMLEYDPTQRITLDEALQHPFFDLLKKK

[33] = target: Macrophage colony-stimulating factor 1 receptor (Homo sapiens, UniProt P07333); type: functional;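 also: value comes from the Navigating the Kinome screening panel, CSF1R member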
[34] = target: Dual specificity mitogen-activated protein kinase kinase 2 (Homo sapiens, UniProt P36507); assay: Navigating the Kinome. Panel member name: MAP2K2; type: functional
[35] = target: Dual specificity tyrosine-phosphorylation-regulated kinase 1A (Homo sapiens, UniProt Q13627); type: functional;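 also: measured against DYRK1A as one member of a broad kinome profiling panel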
[36] = target: Calcium/calmodulin-dependent protein kinase type II subunit alpha (Homo sapiens, UniProt Q9UQM7); assay: Navigating the Kinome. Panel member name: CAMK2A; type: functional
[37] = target: T7, Sphingosine 1-phosphate receptor 2 (Homo sapiens, UniProt O95136); assay: Late-stage fluorescence-based dose-response cell-based counterscreen assay to identify agonists of the Sphingosine 1-Phosphate Receptor 3 (S1P3): Sphingosine 1-Phosphate Receptor 2 (S1P2) agonist assay.; type: functional
T7 sequence (O95136 whole entry): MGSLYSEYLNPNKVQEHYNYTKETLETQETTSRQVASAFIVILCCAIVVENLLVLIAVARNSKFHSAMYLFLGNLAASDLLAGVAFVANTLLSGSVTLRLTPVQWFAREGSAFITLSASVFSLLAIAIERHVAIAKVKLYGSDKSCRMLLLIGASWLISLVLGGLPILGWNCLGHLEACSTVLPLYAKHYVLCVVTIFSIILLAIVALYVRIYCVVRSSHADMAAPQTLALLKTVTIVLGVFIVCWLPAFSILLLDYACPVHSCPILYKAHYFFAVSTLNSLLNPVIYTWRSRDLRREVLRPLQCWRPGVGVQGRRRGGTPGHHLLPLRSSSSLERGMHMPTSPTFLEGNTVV

[38] = target: Sphingosine 1-phosphate receptor 4 (Homo sapiens, UniProt O95977); assay: Late-stage fluorescence-based dose-response cell-based counterscreen assay to identify agonists of the Sphingosine 1-Phosphate Receptor 3 (S1P3): Sphingosine 1-Phosphate Receptor 4 (S1P4) agonist assay.; type: functional
[39] = target: DNA dC->dU-editing enzyme APOBEC-3G (Homo sapiens, UniProt Q9HC16); assay: APOBEC3G deaminase inhibitors, SAR follow-up, biochemical, fluorescence, single-stranded DNA substrate (AID 602136); type: functional; settings: read-out: IC50_Mean
[40] = target: DNA dC->dU-editing enzyme APOBEC-3A (Homo sapiens, UniProt P31941); assay: SAR analysis of small molecule inhibitors of APOBEC3A DNA Deaminase via a fluorescence-based single-stranded DNA deaminase assay.; type: functional; settings: read-out: IC50_Mean
[41] = target: Sphingosine 1-phosphate receptor 1 (Homo sapiens, UniProt P21453); assay: Late-stage fluorescence-based dose-response cell-based counterscreen assay to identify agonists of the Sphingosine 1-Phosphate Receptor 4 (S1P4): Sphingosine 1-Phosphate Receptor 1 (S1P1) agonist assay Set 2.; type: functional
Sphingosine 1-phosphate receptor 1, sequence (P21453 whole entry): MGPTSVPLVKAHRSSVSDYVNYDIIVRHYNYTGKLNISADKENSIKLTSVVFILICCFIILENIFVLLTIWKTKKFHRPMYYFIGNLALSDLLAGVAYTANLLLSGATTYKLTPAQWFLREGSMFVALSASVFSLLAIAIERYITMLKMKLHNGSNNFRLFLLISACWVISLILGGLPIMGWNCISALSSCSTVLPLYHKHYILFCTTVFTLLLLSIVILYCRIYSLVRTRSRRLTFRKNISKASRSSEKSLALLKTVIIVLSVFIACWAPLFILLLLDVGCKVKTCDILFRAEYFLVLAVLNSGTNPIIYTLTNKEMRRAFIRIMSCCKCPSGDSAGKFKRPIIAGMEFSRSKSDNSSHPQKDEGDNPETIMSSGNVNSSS

[42] = target: Sphingosine 1-phosphate receptor 5 (Homo sapiens, UniProt Q9H228); assay: S1P5 receptor agonists, human, late-stage follow-up, counter-screen for S1P4 agonist project, cell-based, fluorescence, set 2 (AID 504867); type: functional
[43] = target: Sphingosine 1-phosphate receptor 3 (Homo sapiens, UniProt Q99500); assay: Late-stage fluorescence-based dose-response cell-based counterscreen assay to identify agonists of the Sphingosine 1-Phosphate Receptor 4 (S1P4): Sphingosine 1-Phosphate Receptor 3 (S1P3) agonist assay Set 2.; type: functional
[44] = target: T7, Sphingosine 1-phosphate receptor 2; assay: S1P2 receptor agonists, human, late-stage follow-up, counter-screen for S1P4 agonist project, cell-based, fluorescence, set 2 (AID 504873); type: functional
[45] = target: T5, Glycogen synthase kinase-3 alpha; assay: Inhibition of Human GSK-3 alpha Activity Measured in Biochemical System Using Microfluidics - 2063-06_Inhibitor_Dose_DryPowder_Activity_Set2. [Related pubchem assays (depositor defined):AID2709]
[46] = target: T6, Glycogen synthase kinase-3 beta; assay: Inhibition of Human GSK-3 beta Activity Measured in Biochemical System Using Microfluidics - 2063-05_Inhibitor_Dose_DryPowder_Activity_Set2. [Related pubchem assays (depositor defined):AID2709]
[47] = target: Cyclin-dependent kinase 5/CDK5 activator 1 (Homo sapiens, UniProt Q00535); assay: CDK5-p25 kinase inhibitors, specificity check, dose response, selectivity assay for GSK-3 alpha inhibitor project, biochemical, microfluidic mobility shift, dry powder (AID 588430)
[48] = target: 26S proteasome non-ATPase regulatory subunit 14 (Homo sapiens, UniProt O00487); assay: inhibition of proteasome subunit RPN11 – biochemical, fluorescence polarization, uHTS hits, confirmation (AID 602368); type: functional
[49] = target: 72 kDa type IV collagenase (Homo sapiens, UniProt P08253); assay: Dose Response validation of uHTS RPN11 inhibitor hits using a MMP-2 Fluorescence assay.; type: functional
Prothrombin = Prothrombin (Bos taurus, UniProt P00735); assay: thrombin inhibition, dose response, biochemical, fluorescence polarization, uHTS hits (AID 602369); type: functional

## CCN1C(=O)/C(=C2/SC(C)=C(C)N2CC)SC1=S
CHO-K1
  IC50: > 66.2 µM (inactive)
[1]
  IC50: > 49.8 µM (inactive)
[2]
  IC50: 3.15 µM (active)
[3]
  IC50: 14.7 µM (inactive)
[4]
  IC50: > 66 µM (inactive)
[5]
  IC50: > 66 µM (inactive)
Orexin receptor type 2 [6]
  IC50: > 88.8 µM (inactive)
Orexin receptor type 2 [7]
  IC50: > 50 µM (inactive)

## COc1ccc(-c2ccc(N)cc2)c2cnoc12
[8]
  Ki: > 79.4 µM (inactive)
[9]
  Ki: 63.1 µM (active)
[10]
  Ki: 79.4 µM (active)
[11]
  Ki: 79.4 µM (active)
[12]
  Ki: 39.8 µM (active)
[13]
  Ki: 100 µM (active)
[14]
  Ki: 79.4 µM (active)
[15]
  Ki: 50.1 µM (active)
[16]
  Ki: 12.6 µM (active)
Aurora kinase A
  Ki: > 50.1 µM (inactive)
LIM domain kinase 1
  Ki: 3.98 µM (active)
[17]
  Ki: 15.8 µM (active)
[18]
  Ki: 100 µM (active)
[19]
  Ki: 63.1 µM (active)
[20]
  Ki: 79.4 µM (active)
[21]
  Ki: > 79.4 µM (inactive)
[22]
  Ki: 79.4 µM (active)
[23]
  Ki: 3.98 µM (active)
[24]
  Ki: 63.1 µM (active)
[25]
  Ki: > 79.4 µM (inactive)
[26]
  Ki: 50.1 µM (active)
[27]
  Ki: > 100 µM (inactive)
[28]
  Ki: 31.6 µM (active)
[29]
  Ki: > 63.1 µM (inactive)
[30]
  Ki: 100 µM (active)
[31]
  Ki: > 50.1 µM (inactive)
[32]
  Ki: 7.94 µM (active)
[33]
  Ki: > 100 µM (inactive)
[34]
  Ki: 100 µM (active)
[35]
  Ki: > 63.1 µM (inactive)
[36]
  Ki: 79.4 µM (active)

## O=C(c1cc(C2CC2)on1)N(C1CCCCCC1)C1CCCC1
[37]
  EC50: > 50 µM (inactive)
[38]
  EC50: > 50 µM (inactive)

## CN(CC1CCCN(CCc2ccc(Cl)cc2)C1)C(=O)c1cc2ncccn2n1 (stereo not drawn)
[39]
  IC50: > 99 µM (inactive)
[40]
  IC50: > 99 µM (inactive)

## C/N=C1/S/C(=C/c2cc(C)n(-c3ccc(F)cc3F)c2C)C(=O)N1C
[41]
  EC50: 4.47 µM (active)
[42]
  EC50: > 25 µM (inactive)
[43]
  EC50: > 25 µM (inactive)
[44]
  EC50: > 25 µM (inactive)

## O=C(CSc1ccc2nnc(-c3cccs3)n2n1)N1CCCC1
[45]
  AC50: 2.08 µM (active)
[46]
  AC50: 0.742 µM (active)
[47]
  AC50: 78.4 µM (active)

## O=C1NC(=O)N(c2cccc3ccccc23)C(=O)/C1=C\NN1CCCCC1c1cccnc1 (stereo not drawn)
[48]
  IC50: 27.4 µM (active)
[49]
  IC50: > 100 µM (inactive)
Prothrombin
  IC50: 59.6 µM (active)
